Measured values as given in ChEMBL document CHEMBL1142044, “Estrogen receptor ligands. Part 10: Chromanes: old scaffolds for new SERAMs” (Bioorg Med Chem Lett, 2005).

Experiments:
Assay type in all cases: ADME, organism-based
[1] = Half life in female rat was determined with intravenous dosing at 1 mpk and oral dosing at 2 mpk; details: in vivo
[2] = Plasma clearance in female rat was determined with intravenous dosing at 1 mpk and oral dosing at 2 mpk; details: 1 mg/kg
[3] = Bioavailability in rat (female) (dose 1 mg/kg i.v. and 2 mg/kg p.o.); details: in vivo, po

Structure (SMILES) | half-life [1] [h] | clearance [2] [mL/min/kg] | bioavailability [3] [%]
C[C@@H]1c2c(ccc(O)c2F)O[C@@H](c2ccc(OCCN3CCCCC3)cc2)[C@H]1c1ccc(O)cc1 | 11.2 | 16.9 | 54
C[C@@H]1c2c(ccc(O)c2F)O[C@@H](c2ccc(OC[C@H](C)N3CCCC3)cc2)[C@H]1c1ccc(O)cc1 | 4.4 | 42.6 | 31
C[C@@H]1CCN(CCOc2ccc([C@@H]3Oc4ccc(O)c(F)c4[C@@H](C)[C@@H]3c3ccc(O)cc3)cc2)C1 | 8 | 17.8 | 43
C[C@@H]1c2cc(O)ccc2O[C@@H](c2ccc(OCCN3CCCCC3)cc2)[C@H]1c1ccc(O)cc1 | 8.1 | 7.7 | 45
C[C@@H]1c2ccc(O)cc2O[C@@H](c2ccc(OCCN3CCCCC3)cc2)[C@H]1c1ccc(O)cc1 | 5.9 | 9.5 | 2
C[C@H]1CCN([C@@H](C)COc2ccc([C@@H]3Oc4ccc(O)c(F)c4[C@@H](C)[C@@H]3c3ccc(O)cc3)cc2)C1 | 6.1 | 9 | 44
